Source: patent US20230145822A1 (priority 2020, published 2023)
“Also recorded” adds a separate entry of the source. Like-named read-outs stand apart in the source and are kept apart here.

Assays:
human PrP^C = human PrP^C (Homo sapiens, UniProt P04156); format: cell-based
NEGR-1 = format: cell-based
mouse PrP^C mRNA = format: cell-based
LC3II = format: cell-based
PrP^C mRNA [1] = format: cell-based, human
EGFP-PrP^C = format: cell-based, mouse; conditions: 24 h, 3-10 μM
PrP^C mRNA [2] = format: cell-based, mouse
PrP^C = PrP^C (Mus musculus, UniProt P04925); format: cell-based; conditions: 1-10 μM, 24 h, PNGase-F
ZR-75 cells = conditions: human
RML prion strain = format: cell-based, mouse

Sequence of PrP^C (P04925 23-254 limits assumed): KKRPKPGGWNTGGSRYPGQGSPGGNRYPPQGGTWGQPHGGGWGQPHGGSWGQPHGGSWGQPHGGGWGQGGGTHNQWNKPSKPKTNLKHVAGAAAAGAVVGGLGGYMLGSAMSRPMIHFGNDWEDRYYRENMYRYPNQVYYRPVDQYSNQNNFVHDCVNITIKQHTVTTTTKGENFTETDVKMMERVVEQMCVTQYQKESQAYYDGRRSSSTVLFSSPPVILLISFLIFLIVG

For `CO/C1=C\C(C)=C\[C@@H](C)[C@@H](O)[C@@H](C)C/C(C)=C/C=C/[C@H](OC)[C@@H]([C@@H](C)[C@@H](O)[C@H](C)[C@@]2(O)C[C@@H](O)[C@H](C)[C@@H](C(C)C)O2)OC1=O` [BAF, Bafilomycin A1, reference compound], the “effect on SM875-induced decrease of PrP^C levels” value (human PrP^C) was “almost completely prevents”.
With `COc1cc(C2CC(=O)Nc3c2cnn3-c2ccc(I)cc2)ccc1O` (stereo not shown) [GC6] the IC25 (human PrP^C) was “sub-micromolar”, the IC50 (human PrP^C) was “sub-micromolar” and the “effect on PrP^C expression” value (human PrP^C) was “even more prominent activity in ZR-75 cells than in HEK293 cells”.
With `COc1cc(C2CC(=O)Nc3c2cnn3-c2ccc(Br)cc2)ccc1O` (stereo not shown) [SM875] the “effect on control protein NEGR-1” value (NEGR-1) was “did not produce any effect”, the “PrP^C mRNA levels” value (mouse PrP^C mRNA) was “does not decrease PrP^C mRNA levels” and the LC3II levels (LC3II) was “large increase; also recorded: much smaller increase”. The “PrP^C mRNA levels” value (PrP^C mRNA [1]) was “does not decrease PrP^C mRNA levels”, the cytotoxicity (HEK293 cells) was “evident cytotoxicity” and the “estimated median lethal dose, LD50” value (HEK293 cells; human) was 4.6 µM. For the same molecule, the “cell surface EGFP-PrP^C” value (EGFP-PrP^C) was “drastic reduction”, the “PrP^C mRNA levels” value (PrP^C mRNA [2]) was “does not decrease PrP^C mRNA levels” and the “alpha-cleavage (C1 PrP)” value (PrP^C) was “dose-dependent increase of Cl PrP”.
For `COc1cc(C2CC(=O)Nc3c2cnn3-c2cccc(F)c2)ccc1O` (stereo not shown) [SM898], the “estimated median lethal dose, LD50” value (HEK293 cells; human) was 37.9 µM and the “reduction of cytotoxicity versus SM875” value (HEK293 cells; human) was ~3 times.
In the case of `OCC(O)Cn1c2ccc(Br)cc2c2cc(Br)ccc21` (stereo not shown) [SM930], the “concentration inducing cell death” value (ZR-75 cells) is reported as 30 µM, the “concentration from which human PrP^C expression is suppressed” value (human PrP^C) is reported as ≥ 3 µM and the “concentration inducing cell death” value (HEK293 cells; human) is reported as 30 µM.
In the case of `Cc1ccccc1Cn1c(=O)c2c(nc3n(-c4ccccc4O)c(C)c(C)n23)n(C)c1=O` [SM940], the “PrP^C mRNA levels” value (mouse PrP^C mRNA) is reported as “do not suppress mouse PrP^C mRNA levels”, the “concentration inducing cell death” value (ZR-75 cells) is reported as > 30 µM and the “concentration from which human PrP^C expression is suppressed” value (human PrP^C) is reported as ≥ 3 µM. For the same molecule, the “concentration inducing cell death” value (HEK293 cells; human) was > 30 µM.
With `COc1cc2c(cc1OC)CN(C(=O)c1cccc(Cl)c1)CC2` [SM950] the “PrP^C mRNA levels” value (mouse PrP^C mRNA) was “do not suppress mouse PrP^C mRNA levels”, the “concentration inducing cell death” value (ZR-75 cells) was 30 µM and the “concentration from which human PrP^C expression is suppressed” value (human PrP^C) was ≥ 1 µM. The “concentration inducing cell death” value (HEK293 cells; human) was ≥ 3 µM.
With `OC[C@H]1O[C@H](O[C@H]2O[C@H](CO)[C@@H](O)[C@H](O)[C@H]2O)[C@H](O)[C@@H](O)[C@@H]1O` [trehalose, reference compound] the LC3II levels (LC3II) was “increased LC3-II levels”.
For Fe(III)-TMPyP, the “prion levels (PK-resistant PrP)” value (RML prion strain) was “inhibits prion levels”.
